Reference: patent US20240309049A1, “SYNTHETIC DNA BINDING DOMAIN PEPTIDES AND USES THEREOF” (The University of Chicago, priority 2016, published 2024)
Positions of bridges follow the written chain, without caps; N, C: chain ends. Non-standard residues stand in square brackets, D forms with d. No end group written: not given here. S5 = C=CCCC[C@](C)(N)C(=O)O; βAla = NCCC(=O)O

Tested on: E-box DNA (5′-CACGTG-3′)
Experiment: Electrophoretic mobility shift assay (EMSA, gel shift) with fluorophore-labeled E-box oligonucleotide
Type: binding
Details: for E-box DNA binding in gel shift (in words): E-box probe
Description: FIG. 9 Representative electrophoretic mobility shift assay (EMSA, referred to as “Gel Shift) images of full length Myc/Max protein binding a fluorophore-labeled oligonucleotide containing an E-box binding site. Full-length Myc/Max binds in this assay with an affinity of ˜10 nM.
A fluorophore-labeled (5′-FAM) oligonucleotide containing a central E-box sequence was used (at 10 nM) to assess Myc/Max and DMD binding. This sequence was used in the Myc/Max/E-box crystal structure. […] The lower band is free E-box probe whereas the higher band is Myc/Max-bound E-box probe. Addition of excess non-labeled E-box probe (E1) competes this interaction. […] Thus, gel shift assays with the E-box probe are suitable for determining DMD (RTD) DNA-binding.
Representative gel shifts are shown for the Myc/Max heterodimer and members of the RTD2x, RTD8x and RTD7x series. Plotted are binding curves derived from the intensity of the free E-box probe (inhibition) and stable shifted band (binding).

E-box DNA binding in gel shift (in words)	EC50 (E-box probe at 10 nM, read-out: EC50 for stable E-box binding / stable complex formation)	E-box DNA binding in gel shift (in words) (listed as MBS)	Kd (E-box oligonucleotide, read-out: binding affinity (Kd) for E-box DNA)	Substance
both tight and stable binding	50 to 100 nM	more stable DNA complex formation		913-MBS: RTD913 design with rigid meta-xylyl linker MBS (Ac-W[βAla]KRAHHNALER[2‑amino‑2‑methylhept‑6‑enoic acid]RRD[S5]IKDSK; staple 13-17; also: dimer via MBS (meta-xylyl) linker, attachment site not given here)
less stable complex formation				AMAS: RTD913 sub-class dimer with short straight-chain AMAS linker (Ac-W[βAla]KRAHHNALER[2‑amino‑2‑methylhept‑6‑enoic acid]RRD[S5]IKDSK; staple 13-17; not fully specified (residue 22); also: dimer via AMAS linker, attachment site not given here)
less stable complex formation				EMCS: RTD913 sub-class dimer with long straight-chain EMCS linker (Ac-W[βAla]KRAHHNALER[2‑amino‑2‑methylhept‑6‑enoic acid]RRD[S5]IKDSK; staple 13-17; not fully specified (residue 22); also: dimer via EMCS linker, attachment site not given here)
specifically binds			~10 nM	Myc/Max: full length recombinant Myc/Max protein heterodimer
